According to publication PMC6017431, “Role of Cationic Side Chains in the Antimicrobial Activity of C18G” (Molecules : A Journal of Synthetic Chemistry and Natural …, 2018):
Like-named read-outs stand apart in the source and are kept apart here. Non-standard residues stand in square brackets, D forms with d. Residues, ends and D or L forms follow the SMILES beside them. No end group written: not given here. Dap = NC[C@H](N)C(=O)O

Key:
E. coli inner membrane = E. coli inner membrane permeabilization (β-galactosidase / ONPG); assay type: cell-based; conditions: peptide up to 15 µM, 30 min time point, absorbance 420 nm, at least 3 replicates
Experimental: (§1) Figure 4 E. coli membrane permeabilization. Chromogenic substrate breakdown after 30 min of exposure to peptides. (A) Outer membrane permeabilization assayed by nitrocefin breakdown. (B) Inner membrane permeabilization assayed by ONPG breakdown. In both panels colors represent C18G (green), C18G-Arg (red), C18G-His (gray), C18G-Orn (orange), C18G-Dap (blue).
Permeabilization of the E. coli inner membrane is monitored with the cytoplasmic enzyme β-galactosidase and the chromogenic substrate ortho-nitrophenyl-β-galactoside (ONPG). This assay in conceptually similar to the outer membrane assay described above, but is focused only on the permeability of the inner membrane. The results are shown in Figure 4B for the 30 min time point of the assay, and the full time course is shown in the supplementary figures (Figure S2).
Inner membrane permeabilization was performed as described previously. The procedure follows that of the outer membrane permeabilization assay, described above, with several modifications. Bacteria were grown overnight in LB media lacking Amp, and dilutions were made in LB supplemented with IPTG. Assay plates were prepared the same, except that cells were not centrifuged before the assay, and were added to the plate directly in the culture medium. Positive control for the inner membrane assay was the cationic detergent CTAB. The substrate was ONPG dissolved in Z-buffer added to a final concentration 0.6 mg/mL in the wells. The sample absorbance was measured at 420 nm for 90 min. All assays were performed at least in triplicate

E. coli outer membrane = E. coli outer membrane permeabilization (β-lactamase / nitrocefin); assay type: cell-based; conditions: E. coli D31 in PBS, peptide up to 15 µM, 30 min exposure, absorbance 486 nm, at least 3 replicates
Experimental: Permeabilization of the E. coli outer membrane is monitored using the periplasmic enzyme β-lactamase and the chromogenic substrate nitrocefin. […] The full time course of the permeabilization assay is shown in the supplementary files (Figure S1).
as §1
Permeabilization of the E. coli outer membrane was performed as described previously. Briefly, a single colony of E. coli D31 was inoculated in LB Broth (Difco) containing […] ampicillin and allowed to grow at 37 °C with shaking overnight. The culture was diluted 1:200 in LB-Amp and incubated at 37 °C until the OD600 was ~0.2. The culture was subsequently centrifuged at 2500 rpm for 15 min. The pellet was resuspended in an equal volume of PBS and added to a 96-well plate containing serially diluted peptides or polymyxin B (positive control). Immediately before reading, nitrocefin was added to the wells (final concentration 0.25 mg/mL) and mixed by pipetting. The sample absorbance was measured at 486 nm for 90 min. All assays were performed at least in triplicate.

[1] = Trp fluorescence binding to lipid vesicles; conditions: 2 µM peptide in PBS pH 7.0 titrated with SUVs up to 300 µM lipid, excitation 280 nm, 2-5 replicates
Excerpt: Based on the proposed mechanism of membrane disruption, the ability of the C18G peptides to interact with lipid vesicles was investigated. All of the sequences contain a Trp residue which can be used as a reporter of the local environment. As the peptide moves from the aqueous milieu to the bilayer surface, the Trp experiences a significant change in the polarity of the local environment. This change in environmental polarity results in a shift of the Trp emission spectrum from more red-shifted (aqueous) to more blue-shifted (bilayer bound). […] The shift in the emission spectrum can be quantified by changes in […] (λmax) or by a shift in the spectral barycenter.
Figure 2 Trp fluorescence emission to measure peptide binding to vesicles. […] Trp emission barycenter was calculated after each addition of vesicles and plotted as a function of total lipid concentration. […]
Measurements were performed on a JY-Horiba fluoromax4 instrument with emission and excitation slits set to 2.5 nm. For lipid binding/titration assays, samples were excited at 280 nm with emission measured over the range of 300–400 nm. […] The barycenter of the spectrum is an intensity-weighted average over the wavelengths measured, and Δbarycenter is the difference between the barycenter of the sample lacking lipid, and that of a given sample [32, 65]. […]

S. aureus membrane = S. aureus membrane permeabilization (propidium iodide, flow cytometry); assay type: cell-based; conditions: 30 min, relative to CTAB positive control
Experimental: The membrane architecture varies greatly between Gram-positive and Gram-negative bacteria. The ability of the peptides to permeabilize a Gram-positive bacterial membrane was also investigated; however, in this case, the use of a bacterial enzyme and chromogenic substrate was not possible. Instead, membrane permeability was assessed using the DNA binding fluorophore propidium iodide (PI). The PI molecule is generally impermeable across the cell membrane under normal conditions, but upon permeabilization, PI can readily cross the membrane and bind to DNA, resulting in a dramatic increase in fluorescence emission intensity.
Figure 5 Membrane permeabilization. (A) Permeabilization of S. aureus membranes by peptides. Cultures of S. aureus were incubated with varying concentrations of peptide and 3.75 µg/mL propidium iodide (PI). PI fluorescence was measured via flow cytometry after 30 min of exposure to peptides. Percent leakage was determined based on the positive control CTAB (data not shown). (B) Peptide induced hemolysis. Defibrinated sheep red blood cells were incubated for 1 h with varying concentrations of peptide or control at 37 °C in sterile PBS. After pelleting the remaining cells, the absorbance of the supernatant was measured at 415 nm to detect released hemoglobin. Percent leakage was determined based on the positive control CTAB (Figure S3). All data is the average of at least 3 replicates, where error bars represent the standard deviation.
Flow cytometry was used to identify cell permeability by incorporation of propidium iodide (PI) into S. aureus under various concentrations of CTAB detergent, C18G, C18G-Arg, C18G-His, C18G-Orn, C18G-Dap peptides using a BD FACSCelesta flow cytometer. Approximately 10,000 cells per sample in 100 µL of PBS, permeabilization reagent, and PI 5.6 μM solution, were incubated for 30 min or 45 min at 23 °C counted in duplicate, and fluorescent signal was evaluated Ex 488 nm laser, Em 575 filter. Percentage of cells found to be permeable for all samples was established by gating around cells on histogram illustrating PI signal with known complete permeabilization CTAB 102 µM.

B. subtilis ATCC: 6051 = assay type: cell-based, Bacillus subtilis
Experimental: (§2) Each bacterial strain was streaked onto LB–Miller agar (BD-Difco, Franklin Lakes, NJ, USA) plates from a frozen stock collection (E. coli D31 [63] S. aureus ATCC: 27660, B. subtilis ATCC: 6051, P. aeruginosa PAO1 [17], and A. baumannii ATCC: 19606). After incubation to allow colony growth, plates stored in a refrigerator at 4 °C. Overnight cultures were inoculated with a single colony of each bacterial strain into fresh LB or Mueller Hinton broth (MH, BD-Difco) in sterile glass test tubes. Inoculated samples were placed in a 37 °C shaking incubator (250 rpm) for ~18 h. After the overnight incubation, a 1:200 dilution of the culture was made in fresh LB or MH for use in subsequent experiments.
(§3) Bacterial growth inhibition was investigated using the standard minimal inhibitory concentration (MIC) assay. Cultures of bacteria were grown as described above, subsequently diluted to ~10^5 cfu/mL in MH media. Subsequently, 90 μL of this diluted culture was added to wells of a sterile 96-well plate containing serially diluted aliquots of the peptides for a final volume in the well of 100 μL. The plate was covered and incubated at 37 °C for 18 h. After incubation the OD600 was measured with a Spectramax M5 multimode plate reader. Next, the minimal bactericidal concentration (MBC) was determined by taking 1 μL of culture from each well on the plate corresponding to peptide concentrations at and above the MIC and plating on a fresh LB-agar plate. The plate incubated overnight at 37 °C, and MBC was determined from the presence or absence of growth on each spot.

S. aureus ATCC: 27660 = assay type: cell-based, Staphylococcus aureus
Experimental: as §2, §3

[2] = MH media, ~10^5 cfu/mL, 37 °C, 18 h, OD600

Compound | Inner membrane permeabilization (ONPG breakdown) (E. coli inner membrane) | Outer membrane permeabilization (nitrocefin breakdown) (E. coli outer membrane) | Binding to 100% PC lipid vesicles (shift of Trp emission barycenter) [1] | Percent leakage (PI) of S. aureus membrane (S. aureus membrane; down through 3.75 µM peptide) | B. subtilis MBC (B. subtilis ATCC: 6051; ATCC: 6051, 18 h) | B. subtilis MIC (B. subtilis ATCC: 6051; ATCC: 6051, 18 h) | S. aureus MBC (S. aureus ATCC: 27660; ATCC: 27660, 18 h) | S. aureus MIC (S. aureus ATCC: 27660; ATCC: 27660, 18 h) | Fold increase in MIC relative to the parent sequence (S. aureus ATCC: 27660; against S. aureus) | B. subtilis MBC (B. subtilis ATCC: 6051; 1 µL from wells at and above MIC plated on LB-agar, overnight 37 °C) | B. subtilis MIC (B. subtilis ATCC: 6051; [2]) | S. aureus MIC (S. aureus ATCC: 27660; [2]) | Binding to 3:1 PC/PG lipid vesicles (shift of Trp emission barycenter) [1] | Percent leakage (PI) of S. aureus membrane (S. aureus membrane; 7.5 µM peptide) | Percent leakage (PI) of S. aureus membrane (S. aureus membrane; 15 µM peptide) | Percent leakage (PI) of S. aureus membrane (S. aureus membrane; through 1.88 µM peptide)
ALWRRLLRRLLRSARRLG-NH2 [C18G-Arg] | induced less leakage | near maximal permeabilization observed above 3.75 µM | significant increase in binding to zwitterionic PC membranes compared to C18G | ~ 90% | 1.875 µM | 1.875 µM | 3.75 µM | 3.75 µM | – | – | – | – | – | – | – | –
CC(C)C[C@H](NC(=O)[C@H](C)N)C(=O)N[C@@H](Cc1c[nH]c2ccccc12)C(=O)N[C@@H](CN)C(=O)N[C@@H](CN)C(=O)N[C@@H](CC(C)C)C(=O)N[C@@H](CC(C)C)C(=O)N[C@@H](CN)C(=O)N[C@@H](CN)C(=O)N[C@@H](CC(C)C)C(=O)N[C@@H](CC(C)C)C(=O)N[C@@H](CN)C(=O)N[C@@H](CO)C(=O)N[C@@H](C)C(=O)N[C@@H](CN)C(=O)N[C@@H](CN)C(=O)N[C@@H](CC(C)C)C(=O)NCC(N)=O [C18G-Dap] (H-ALW[Dap][Dap]LL[Dap][Dap]LL[Dap]SA[Dap][Dap]LG-NH2) | little to no permeabilization | permeabilization to a lesser extent | – | – | 1.875 µM | 1.875 µM | 7.5 µM | 7.5 µM | ≤ 4 fold | – | – | – | – | – | – | –
ALWKKLLKKLLKSAKKLG-NH2 [C18G] | highest degree of permeabilization | near maximal permeabilization observed above 3.75 µM | – | – | – | – | 3.75 µM | – | – | 1.875 µM | 1.875 µM | 1.875 µM | – | – | – | –
ALWHHLLHHLLHSAHHLG-NH2 [C18G-His] | little to no permeabilization | almost no permeabilization of the outer membrane except at 15 µM | – | – | >15 µM | 1.875 µM | 15 µM | 15 µM | – | – | – | – | bound anionic bilayers with higher affinity than zwitterionic bilayers | > 50% | > 50% | –
CC(C)C[C@H](NC(=O)[C@H](C)N)C(=O)N[C@@H](Cc1c[nH]c2ccccc12)C(=O)N[C@@H](CCCN)C(=O)N[C@@H](CCCN)C(=O)N[C@@H](CC(C)C)C(=O)N[C@@H](CC(C)C)C(=O)N[C@@H](CCCN)C(=O)N[C@@H](CCCN)C(=O)N[C@@H](CC(C)C)C(=O)N[C@@H](CC(C)C)C(=O)N[C@@H](CCCN)C(=O)N[C@@H](CO)C(=O)N[C@@H](C)C(=O)N[C@@H](CCCN)C(=O)N[C@@H](CCCN)C(=O)N[C@@H](CC(C)C)C(=O)NCC(N)=O [C18G-Orn] (HELM PEPTIDE1{A.L.W.[Orn].[Orn].L.L.[Orn].[Orn].L.L.[Orn].S.A.[Orn].[Orn].L.G.[am]}$$$$V2.0) | very little observed leakage | near maximal permeabilization observed above 3.75 µM | – | – | 7.5 µM | 3.75 µM | 1.875 µM | 1.875 µM | – | – | – | – | – | – | – | > 50%
